Assay [1] deals with p21 induction in HCT 116 cells. Briefly: p21 induction in cells (In-Cell Western, p21/GAPDH ratio). It counts as cell-based. The settings on record: Homo sapiens, 24 h compound incubation, read-out: p21_EC50. The protocol:
The colon carcinoma cell line HCT 116 was obtained from ATCC and cultured in growth medium consisting of Mccoy's 5A Medium (Gibco 16600108) supplemented with 10% FBS (Transgene FS201-02) and 100 units/mL penicillin-streptomycin (Gibco 15140122) and maintained at 37° C. under 5% CO2. On the day of seeding, 2,000 cells in 30 μL of culture media were plated per well to Poly-D-Lysine 384 Well Black Clear Plates (Biocoat 356663) and incubated overnight at 37° C. under 5% CO2. The following day, compounds were serially diluted in DMSO for a total of 11 test concentrations. The typical starting concentration of compounds was 10 μM with 2-fold dilutions. Next, 150 nL of diluted compound was added in duplicate to the assay plate, using an Echo 655 (Labcyte). The plate was centrifuged at 500 RPM for 1 min and then incubated at 37° C. under 5% CO2 for 24 h. After 24 h, medium was removed, and cells were fixed by adding 40 μL of 4% paraformaldehyde solution to each well and incubated for 20 min at room temperature. The plate was then washed 4 times with 100 μL per well of wash buffer (PBS with 0.1% Tween-20) using a microplate washer. Next, 30 μL of ice-cold methanol was added to each well and the plate was incubated at −20° C. for 10 min. The plate was washed 4 times with 100 μL per well of wash buffer by a microplate washer, then 30 μL per well of blocking buffer ((Intercept PBS blocking buffer (LI-COR 927-70001) with 0.05% Tween-20)) was added and the plate was incubated at room temperature with shaking for 2 h. Next, to each test well, 20 μL of primary antibody solution (p21 Wafl/CIP (12D1) RabbitmAb (Cell Signaling Technologies 2947) diluted 1:1000 and GAPDH (D4C6R) Mouse mAb (Cell Signaling Technologies 97166) diluted 1:2000 in blocking buffer) was added and the plate was placed at 4° C., overnight. The following day, the plate was washed 5 times with 100 μL per well of wash buffer using a microplate washer for 5 min. 20 μL per well of secondary antibody (IRDye 680CW Goat anti-Mouse IgG (H+L) (LI-COR 926-68070) diluted 1:2000 in Blocking Buffer and IRDye 800CW Goat anti-Rabbit IgG (H+L) (LI-COR 926-32211) diluted 1:2000 in Blocking Buffer) was then added and the plate was stored for 2 h in the dark at room temperature with shaking. The plate was then washed 4 times with 100 μL per well of wash buffer again using a microplate washer. Finally, the p21 signal and the GAPDH signal were quantified using a LI-COR Odyssey CLx Imager machine reading at 800 nm and 700 nm, respectively. Each plate contained DMSO control (low control) and an internal reference WRN inhibitor (high control) respectively. For quantitation, the 800 nm/700 nm ratio was calculated for each well to give fold p21 induction and then percent activation for each compound well was calculated as follows (100×(ratio cpd well-ratio low control)/(ratio high control−ratio low control). EC50 values for each compound was generated after non-linear regression curve fitting using commercially available software.

The target in assay [2] is human Werner helicase (WRN, amino acids 517-1235 with L1074F point mutation) (Homo sapiens (Human), UniProt Q14191, L1074F). The assay is described as follows: WRN (BV08) ADP-Glo assay. Type of assay: biochemical. The settings on record: human WRN (aa 517-1235, L1074F), read-out: ADP-Glo_hWRN_IC50. The source says:
Bovine skin gelatin (BSG), dimethyl sulfoxide (DMSO), Pluronic F-127 and tris(2-carboxyethyl)phosphine hydrochloride solution (TCEP) were purchased from Sigma-Aldrich (St. Louis, MO) at the highest level of purity possible. Bicine buffer solution was purchased from Alfa Aesar (Tewksbury, MA) and compound NSC-617145 was purchased from Tocris (Minneapolis, MN). DNA duplex was synthesized at BGI (Shenzhen, China) and was composed of strand 1 with the sequence 5′-[…]-3′ (SEQ ID NO.: 1) and strand 2 with the sequence 5′-[…]-3′ (SEQ ID NO.: 2). DNA strands were annealed by heating to 95° C. for 5 minutes followed by slow cooling to room temperature. Compounds in 100% DMSO (0.1 μl) were spotted into a 384-well white polystyrene Optiplate-384 (Perkin Elmer; Waltham, MA) assay plate using a LabCyte Echo 550 (Agilent; Santa Clara, CA). DMSO (0.1 μl) was added to columns 12, rows A-H and column 24, rows I-P for the maximum signal control. Compound NSC-617145 (0.1 μl) was added to columns 12, rows I-P and 24, rows A-H for the minimum signal control (100% inhibition). Compounds/DMSO were preincubated for 15 minutes at 25° C. with 5 μl 2×WRN (BV08), prepared as described below, in assay buffer containing 20 mM Bicine (pH=7.5), 1 mM MgCl2, 10 mM KCl, 0.1% Pluronic F-127, 0.005% BSG, 1 mM TCEP. The reaction was initiated by the addition of 5 μl 2× substrate mixture in assay buffer and incubated for 60 minutes at 25° C. The final concentrations of the assay components were 0.15 nM WRN, 5 μM ATP, and 0.1 nM DNA duplex. The final DMSO concentration was 1% and the reference compound concentration (NSC-617145) used for the minimal signal control was 20 μM. The reaction was stopped by the addition of the ADP-Glo Kit components (Promega; Madison, WI) as directed and the relative luminescence units (RLU) were read on an Envision 2104 (Perkin Elmer; Waltham, MA).
% inhibition calculation:
% INH=(RLU MAX−RLU sample)/(RLU MAX−RLU MIN))×100
Where RLU=relative luminescence units, sample=signal in sample well, and MIN and MAX are the respective minimum and maximum signal controls. Four-parameter IC50 fit equation:
Y=Bottom+(Top−Bottom)/(1+(IC50/X)^Hill Slope)
Where top and bottom are normally allowed to float but may be fixed at 100 or 0 respectively in a 3-parameter fit. Y is the % inhibition and X is the compound concentration.
Molecular Biology and virus production. The DNA encoding human Werner helicase (Uniprot Q14191, amino acids 517-1235 with L1074F point mutation) was generated with codon-optimization for E. coli expression and subcloned into the pFastBac vector with a TEV cleavable 8×His tag (WRN—BV08). The baculovirus from the expression plasmid WRN—BV08 was generated from transfection and amplification following the manufacturer's instructions.
Sf9 cells grown in SF900II media were infected with 1:200 WRN—BV08 P2 virus and incubated for protein expression for 72 h at 27° C. The WRN protein was purified using the following protocol. The cell pellets were thawed and resuspended in buffer A (50 mM Tris, pH 7.5, 500 mM NaCl, 1 mM TCEP, 10% Glycerol) supplemented with 0.5% CHAPS, 1 mM PMSF, […] Leupeptin, 1 μg/ml Pepstatin, and the Pierce Universal Nuclease and cocktail tablet. Cleared lysates were loaded onto a Ni Sepharose™ excel column and washed with buffer A and bound protein was eluted with buffer A supplemented with 300 mM imidazole. The eluted protein was dialyzed against buffer A and digested by His-tagged TEV (1:5 ratio) overnight at 4° C. ZnCl2 was added into the sample at final 15 μM before loading onto a second Ni Sepharose™ excel column. Untagged WRN protein was eluted from the column with buffer A supplemented with 20 mM imidazole, dialyzed overnight into buffer B (50 mM Tris, pH 7.5, 1 mM TCEP, 10% Glycerol) supplemented with 150 mM NaCl and loaded onto a Heparin column. Proteins were eluted with a step gradient of buffer B supplemented with 150 mM, 200 mM, 300 mM and 500 mM NaCl. […]
For orientation: ADP-Glo first removes unused ATP, then detects ADP through luciferase.

Sequence of human Werner helicase (WRN, amino acids 517-1235 with L1074F point mutation) (Q14191 other isoform, or with tags, fused parts or gaps L1074F (already in the parent)): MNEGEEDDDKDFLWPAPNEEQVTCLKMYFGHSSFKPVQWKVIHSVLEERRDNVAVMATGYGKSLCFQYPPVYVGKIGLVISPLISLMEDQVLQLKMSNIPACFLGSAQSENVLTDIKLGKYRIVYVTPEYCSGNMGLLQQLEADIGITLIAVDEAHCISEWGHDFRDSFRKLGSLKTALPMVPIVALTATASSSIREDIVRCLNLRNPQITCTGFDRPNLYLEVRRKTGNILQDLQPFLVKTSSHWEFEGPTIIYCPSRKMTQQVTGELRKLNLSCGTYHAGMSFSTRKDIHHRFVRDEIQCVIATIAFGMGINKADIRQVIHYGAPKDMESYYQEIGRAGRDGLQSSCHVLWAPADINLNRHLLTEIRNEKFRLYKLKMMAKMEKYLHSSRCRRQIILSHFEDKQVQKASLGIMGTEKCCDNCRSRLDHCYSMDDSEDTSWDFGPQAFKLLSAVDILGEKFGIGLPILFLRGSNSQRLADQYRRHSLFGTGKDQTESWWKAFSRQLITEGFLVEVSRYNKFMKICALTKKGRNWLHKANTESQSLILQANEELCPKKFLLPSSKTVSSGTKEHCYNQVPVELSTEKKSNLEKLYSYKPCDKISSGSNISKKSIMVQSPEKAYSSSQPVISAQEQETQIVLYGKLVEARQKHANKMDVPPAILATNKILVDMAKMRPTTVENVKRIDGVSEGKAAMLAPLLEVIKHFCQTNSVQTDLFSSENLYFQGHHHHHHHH

As to `CCc1c(N2CCN(C(=O)c3ccccc3OC)[C@H]3CC[C@@H]32)c(=O)c2nn(C3=CCOCC3)nc2n1CC(=O)NC12CC(C(C)C)(C1)C2` [Compound I-53, 2-[2-(3,6-dihydro-2H-pyran-4-yl)-5-ethyl-6-[(1S,6S)-5-(2-methoxybenzoyl)-2,5-diazabicyclo[4.2.0]octan-2-yl]-7-oxo-2H,4H,7H-[1,2,3]triazolo[4,5-b]pyridin-4-yl]-N-[3-(propan-2-yl)bicyclo[1.1.1]pentan-1-yl]acetamide], the EC50 in assay [1] is not above 500 nM. The IC50 in assay [2] lay in the range of 5 to 50 nM.

With `CCc1c(N2CCN(C(=O)c3ncnc(C)c3O)[C@H]3CC[C@@H]32)c(=O)c2nn(-c3ccnc(OC)c3)nc2n1CC(=O)NC1CCC2(CC1)CC2(F)F` (stereo partly drawn) [Compound I-67, N-{1,1-difluorospiro[2.5]octan-6-yl}-2-{5-ethyl-6-[(1S,6S)-5-(5-hydroxy-6-methylpyrimidine-4-carbonyl)-2,5-diazabicyclo[4.2.0]octan-2-yl]-2-(2-methoxypyridin-4-yl)-7-oxo-2H,4H,7H-[1,2,3]triazolo[4,5-b]pyridin-4-yl}acetamide], the EC50 in assay [1] was more than 5000 nM. For the same molecule, the IC50 in assay [2] was 5 to 50 nM.

For `CCc1c(N2CCN(C(=O)c3ncnc(C)c3O)[C@H]3CC[C@@H]32)c(=O)c2nn(-c3ccnc(OC)c3)nc2n1CC(=O)NC1CC2(C1)CC2F` (stereo partly drawn) [Compound I-69, 2-{5-ethyl-6-[(1S,6S)-5-(5-hydroxy-6-methylpyrimidine-4-carbonyl)-2,5-diazabicyclo[4.2.0]octan-2-yl]-2-(2-methoxypyridin-4-yl)-7-oxo-2H,4H,7H-[1,2,3]triazolo[4,5-b]pyridin-4-yl}-N-{1-fluorospiro[2.3]hexan-5-yl}acetamide], the EC50 in assay [1] fell in the range of 500 to 2000 nM. Also, in assay [2], the IC50 is 5 to 50 nM.

Consider `CCc1c(N2CCN(C(=O)c3ncnc(C)c3O)[C@H]3CC[C@@H]32)c(=O)c2nn(-c3cnn(C4CC4)c3)nc2n1CC(=O)Nc1ccc(C(F)(F)F)cc1Cl` [Compound I-57, N-[2-chloro-4-(trifluoromethyl)phenyl]-2-[2-(1-cyclopropyl-1H-pyrazol-4-yl)-5-ethyl-6-[(1S,6S)-5-(5-hydroxy-6-methylpyrimidine-4-carbonyl)-2,5-diazabicyclo[4.2.0]octan-2-yl]-7-oxo-2H,4H,7H-[1,2,3]triazolo[4,5-b]pyridin-4-yl]acetamide], for which the EC50 in assay [1] is not above 500 nM. The IC50 in assay [2] was not above 5 nM.

Take `CCc1c(N2CCN(C(=O)c3cc4cc[nH]c4nc3OC)[C@H]3CC[C@@H]32)c(=O)c2nn(C3=CCOCC3)nc2n1CC(=O)NC12CC(C(C)C)(C1)C2` [Compound I-157, 2-[2-(3,6-dihydro-2H-pyran-4-yl)-5-ethyl-6-[(1S,6S)-5-{6-methoxy-1H-pyrrolo[2,3-b]pyridine-5-carbonyl}-2,5-diazabicyclo[4.2.0]octan-2-yl]-7-oxo-2H,4H,7H-[1,2,3]triazolo[4,5-b]pyridin-4-yl]-N-[3-(propan-2-yl)bicyclo[1.1.1]pentan-1-yl]acetamide]: in assay [1], the EC50 was not above 500 nM. Also, the IC50 in assay [2] is 5 to 50 nM.

Take `CCc1c(N2CCN(C(=O)c3cccc4c3OCCN4C)[C@H]3CC[C@@H]32)c(=O)c2nn(C3=CCOCC3)nc2n1CC(=O)NC12CC(C3CC3)(C1)C2` [Compound I-205, N-{3-cyclopropylbicyclo[1.1.1]pentan-1-yl}-2-[2-(3,6-dihydro-2H-pyran-4-yl)-5-ethyl-6-[(1S,6S)-5-(4-methyl-3,4-dihydro-2H-1,4-benzoxazine-8-carbonyl)-2,5-diazabicyclo[4.2.0]octan-2-yl]-7-oxo-2H,4H,7H-[1,2,3]triazolo[4,5-b]pyridin-4-yl]acetamide]: the EC50 in assay [1] lay within 500 to 2000 nM. For the same molecule, the IC50 in assay [2] lay within 5 to 50 nM.

As to `CCc1c(N2CCN(C(=O)c3c(OC)ncc(C)c3O)[C@H]3CC[C@@H]32)c(=O)c2nn(-c3ccnc(OC)c3)nc2n1CC(=O)NC12CC(C(C)C)(C1)C2` [Compound I-116, 2-{5-ethyl-6-[(1S,6S)-5-(4-hydroxy-2-methoxy-5-methylpyridine-3-carbonyl)-2,5-diazabicyclo[4.2.0]octan-2-yl]-2-(2-methoxypyridin-4-yl)-7-oxo-2H,4H,7H-[1,2,3]triazolo[4,5-b]pyridin-4-yl}-N-[3-(propan-2-yl)bicyclo[1.1.1]pentan-1-yl]acetamide], in assay [1], the EC50 was not above 500 nM. Further, in assay [2], the IC50 lay within 5 to 50 nM.

Consider `CCc1c(N2CCN(C(=O)c3ncnc(C)c3O)[C@H]3CC[C@@H]32)c(=O)c2nn(-c3ccnc(OC)c3)nc2n1CC(=O)NC1CC2(CCC2)C1` [Compound I-86, 2-{5-ethyl-6-[(1S,6S)-5-(5-hydroxy-6-methylpyrimidine-4-carbonyl)-2,5-diazabicyclo[4.2.0]octan-2-yl]-2-(2-methoxypyridin-4-yl)-7-oxo-2H,4H,7H-[1,2,3]triazolo[4,5-b]pyridin-4-yl}-N-{spiro[3.3]heptan-2-yl}acetamide], for which, in assay [2], the IC50 was in the range of 5 to 50 nM.

Values taken from patent publication US20250129069A1, “TRIAZOLO WRN INHIBITORS” (Nimbus Wadjet, Inc., priority 2023, published 2025).
